Article PMC3171192 (Journal of medicinal chemistry, 2011)
*1 amine or outer side, *2 acyl side, *3 side chain or, on linkers, in order; H or OH if unused. Where a SMILES comes first, the peptide text is derived from it. [ ]: non-standard residue; d: D form. X1 = O=C(CCc1cccc2c1oc1c(CCN[*:1])cccc12)[*:2]

Experiments:
[1] = biological target: T1, CD2–CD58 interaction (adhesion between T cells (Jurkat, CD2) and Caco-2 cells (CD58)) (Homo sapiens, UniProt P19256); assay: Lymphocyte-epithelial adhesion assay; type: cell-based; conditions: concentration range 0.0005 to 150 µM
T1 sequence (P19256 29-250): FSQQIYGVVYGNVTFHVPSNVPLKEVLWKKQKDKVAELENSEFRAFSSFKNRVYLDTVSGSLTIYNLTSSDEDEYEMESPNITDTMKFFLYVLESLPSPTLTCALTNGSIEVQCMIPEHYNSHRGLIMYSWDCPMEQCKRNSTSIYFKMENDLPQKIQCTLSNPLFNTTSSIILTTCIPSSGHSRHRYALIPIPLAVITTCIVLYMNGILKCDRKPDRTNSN

Jurkat cells = assay: CellTiter-Glo cell viability assay, Jurkat cells
Caco-2 cells = assay: CellTiter-Glo cell viability assay, Caco-2 cells

KGKTDAISVKAI-NH2 [control peptide]
cell adhesion inhibition in the lymphocyte epithelial assay [1]: ~18%

CC[C@H](C)[C@@H]1NC(=O)[C@H](Cc2ccc(O)cc2)NC(=O)[C@H](CC(=O)O)NC(=O)CCc2cccc3c2Oc2c(cccc2-3)CCNC(=O)[C@H](CC(=O)O)NC(=O)[C@H](CC(=O)O)NC(=O)[C@H](CCCCN)NC1=O [Peptide 7] (cyclo(DD[X1]DYIK))
toxicity effects on T cells (Jurkat cells): did not show any toxicity effects | toxicity effects on Caco-2 cells (Caco-2 cells): did not show any toxicity effects
